Assay results taken from ChEMBL document CHEMBL4393659, “Insights into the chemistry and therapeutic potential of furanones: A versatile pharmacophore” (Eur J Med Chem, 2019).
pIC50: −log10 of the molar value. In brackets after ≈: the same amount, converted by molar mass.

Assays:
Fusarium oxysporum = test: Antifungal activity against Fusarium oxysporum assessed as reduction in fungal spore germination measured between 4 to 24 hrs by inverted microscopy; format: functional; settings: read-out: ED50 (the source's name)
Rhizoctonia solani = test: Antifungal activity against Rhizoctonia solani assessed as reduction in fungal germ tube growth measured between 4 to 24 hrs by inverted microscopy; format: functional; settings: read-out: ED50 (the source's name)
Berkeleyomyces basicola = test: Antifungal activity against Thielaviopsis basicola assessed as reduction in fungal spore germination measured between 4 to 24 hrs by inverted microscopy; format: functional; settings: read-out: ED50 (the source's name)
Globisporangium ultimum [1] = test: Antifungal activity against Pythium ultimum assessed as reduction in fungal spore germination measured between 4 to 24 hrs by inverted microscopy; format: functional; settings: read-out: ED50 (the source's name)
Fusarium solani = test: Antifungal activity against Fusarium solani assessed as reduction in fungal spore germination measured between 4 to 24 hrs by inverted microscopy; format: functional; settings: read-out: ED50 (the source's name)
H5N1 subtype = test: Antiviral activity against H5N1 virus infected in MDCK cells assessed as virus-induced cytopathogenicity infected for 2 hrs followed by virus washout and incubated for 3 days; format: functional, organism-based; settings: Influenza A virus
[2] = Cytotoxicity against dog MDCK cells assessed as reduction in cell viability incubated for 24 hrs by MTT assay; format: cell-based, Canis lupus familiaris; settings: read-out: LD50
MAC16 [3] = test: Antiproliferative activity against mouse MAC16 cells assessed as reduction in cell viability incubated for 3 days by MTT assay; format: functional, cell-based; settings: MAC16, 72 h
MAC16 [4] = test: Antitumor activity in mouse MAC16 cells xenografted in NMRI mouse assessed as reduction in tumor weight administered after 2 days of transplantation and measured after 7 day; format: functional
MAC13 = test: Antiproliferative activity against mouse MAC13 cells assessed as reduction in cell viability incubated for 3 days by MTT assay; format: functional, cell-based; settings: MAC13, 72 h
[5] = tested on: Trichophyton mentagrophytes; test: Antifungal activity against Trichophyton mentagrophytes 445 assessed as reduction in fungal cell viability measured after 72 and 120 hrs by photometry; format: functional
Aspergillus fumigatus [6] = test: Antifungal activity against Aspergillus fumigatus assessed as reduction in fungal cell viability by broth dilution method; format: functional
Trichosporon beigelii = test: Antifungal activity against Trichosporon beigelii 1188 assessed as reduction in fungal cell viability measured after 24 and 72 hrs by photometry; format: functional
Pichia kudriavzevii = test: Antifungal activity against Candida krusei E28 assessed as reduction in fungal cell viability measured after 24 and 48 hrs by photometry; format: functional
Lichtheimia corymbifera [7] = test: Antifungal activity against Absidia corymbifera assessed as reduction in fungal cell viability by broth dilution method; format: functional
Candida tropicalis = test: Antifungal activity against Candida tropicalis 156 assessed as reduction in fungal cell viability measured after 24 and 72 hrs by photometry; format: functional
Aspergillus fumigatus [8] = test: Antifungal activity against Aspergillus fumigatus 231 assessed as reduction in fungal cell viability measured after 24 and 72 hrs by photometry; format: functional
Lichtheimia corymbifera [9] = test: Antifungal activity against Absidia corymbifera 272 assessed as reduction in fungal cell viability measured after 24 and 72 hrs by photometry; format: functional
Nakaseomyces glabratus = test: Antifungal activity against Candida glabrata 20/I assessed as reduction in fungal cell viability measured after 24 and 72 hrs by photometry; format: functional
Candida albicans [10] = test: Antifungal activity against Candida albicans ATCC 44859 assessed as reduction in fungal cell viability measured after 24 and 48 hrs by photometry; format: functional
Phospholipase A2 = Phospholipase A2 (Apis mellifera, UniProt P00630); test: Inhibition of bee venom phospholipase A2
Sequence of Phospholipase A2 (P00630 whole entry): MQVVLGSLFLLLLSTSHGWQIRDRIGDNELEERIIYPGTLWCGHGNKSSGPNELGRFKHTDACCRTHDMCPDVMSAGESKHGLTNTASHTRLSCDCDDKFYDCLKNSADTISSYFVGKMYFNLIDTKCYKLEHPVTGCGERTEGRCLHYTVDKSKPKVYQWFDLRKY

Globisporangium ultimum [11] = test: Antifungal activity against Pythium ultimum assessed as reduction in fungal cell growth incubated for 48 hrs by broth dilution method; format: functional
Diaphania hyalinata = test: Insecticidal activity against Diaphania hyalinata assessed as reduction in living insects observed after 48 hrs; format: functional
CYP3A4 = test: Inhibition of CYP3A4 in Sprague-Dawley rat liver microsome assessed as remaining activity by measuring 1'-hydroxylation of midazolam at 3 x 10^-5 M after 20 mins; format: ADME; settings: liver microsomes, probe midazolam (1'-hydroxylation), read-out: INH
Rattus norvegicus [12] = test: Antiinflammatory activity in Sprague-Dawley rat assessed as inhibition of carrageenan-induced paw edema at 3 mg/kg , po incubated for 1 hr followed by carrageenan addition and measured after 4 hrs relative to control; format: functional
Rattus norvegicus [13] = species: Rattus norvegicus; test: Antiarthritic activity in adjuvant-induced Sprague-Dawley rat; format: functional
Rattus norvegicus [14] = test: Antiinflammatory activity in Sprague-Dawley rat assessed as inhibition of carrageenan-induced paw edema at 3 mg/kg , po relative to control; format: functional
[15] = biological target: Prostaglandin G/H synthase 2 (Mus musculus, UniProt Q05769); test: Inhibition of mouse COX-2 in LPS-induced mouse peritoneal macrophage assessed as reduction in PGE2 release incubated for 2 hrs by ELISA
Sequence of Prostaglandin G/H synthase 2 (Q05769 whole entry): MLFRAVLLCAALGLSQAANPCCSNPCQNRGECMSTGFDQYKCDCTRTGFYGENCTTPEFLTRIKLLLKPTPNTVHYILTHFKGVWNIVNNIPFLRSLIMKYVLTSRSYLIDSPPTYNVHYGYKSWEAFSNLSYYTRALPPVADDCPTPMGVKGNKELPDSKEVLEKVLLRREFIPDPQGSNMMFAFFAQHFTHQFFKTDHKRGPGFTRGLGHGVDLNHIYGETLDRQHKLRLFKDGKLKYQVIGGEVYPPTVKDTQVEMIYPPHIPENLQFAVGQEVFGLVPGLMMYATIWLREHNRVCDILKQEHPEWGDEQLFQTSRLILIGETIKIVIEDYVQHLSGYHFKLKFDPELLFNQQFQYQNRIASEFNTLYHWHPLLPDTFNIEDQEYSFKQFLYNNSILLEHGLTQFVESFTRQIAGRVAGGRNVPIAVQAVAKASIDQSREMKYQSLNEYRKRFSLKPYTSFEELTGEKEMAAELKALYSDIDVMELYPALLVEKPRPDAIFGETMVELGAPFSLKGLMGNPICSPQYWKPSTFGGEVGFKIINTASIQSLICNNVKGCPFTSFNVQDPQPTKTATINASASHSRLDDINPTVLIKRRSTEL

[16] = Ulcerogenicity in Sprague-Dawley rat assessed as gastric lesions at 50 mg/kg , po bid measured after 4 hrs; format: toxicity, organism-based; settings: in vivo
Liver = test: Antioxidant activity in rat liver microsomes assessed as reduction in ferrous salt/ascorbic acid-induced lipid peroxidation of membrane lipids by measuring malondialdehyde level after 90 mins by spectrophotometry; format: functional, Microsome; settings: 1.5 h
[17] = Antioxidant activity assessed as superoxide anion scavenging activity at pH 7.4 phosphate buffer incubated for 5 mins by NBT assay; format: functional
[18] = Antioxidant activity assessed as DPPH radical scavenging activity measured for each 5 mins for 3 hrs; format: functional
Candida albicans [19] = test: Antifungal activity against Candida albicans assessed as inhibition of fungal cell growth incubated for 72 hrs by disk diffusion method relative to control; format: functional

SMILES: CCCC/C=C\C1=CC(C)OC1=O (stereo not drawn)
- EC50 (Fusarium oxysporum): 56 µg/mL (≈ 311 µM)
- EC50 (Rhizoctonia solani): 61 µg/mL (≈ 338 µM)
- EC50 (Berkeleyomyces basicola): 25 µg/mL (≈ 139 µM)
- EC50 (Globisporangium ultimum [1]): 45 µg/mL (≈ 250 µM)
- EC50 (Fusarium solani): 54 µg/mL (≈ 300 µM)

SMILES: O=C1OC(c2ccccc2)=C/C1=N/Nc1ccc(Br)cc1
- EC50 (H5N1 subtype): < 100 µg/mL
- CC50 at 24 h [2]: < 100 µg/mL

SMILES: O=C1OC(c2ccccc2)C(Cl)=C1Cl (stereo not drawn)
- pIC50 (MAC16 [3]): 4.30
- inhibition (INH) (MAC16 [4]): 24%
- pIC50 (MAC13): 4.30

SMILES: CC1C=C(c2ccc(Cl)c(Cl)c2)C(=O)O1 (stereo not drawn)
- MIC [5]: 31.2 µM (≈ 7.6 µg/mL)
- MIC (Aspergillus fumigatus [6]): 7.6 µg/mL (≈ 31.3 µM)
- MIC (Trichosporon beigelii): 31.2 µM (≈ 7.6 µg/mL)
- MIC (Pichia kudriavzevii): > 125 µM
- MIC (Lichtheimia corymbifera [7]): 7.6 µg/mL (≈ 31.3 µM)
- MIC (Candida tropicalis): > 125 µM
- MIC (Aspergillus fumigatus [8]): 7.87 µM (≈ 1.91 µg/mL)
- MIC (Lichtheimia corymbifera [9]): 7.81 µM (≈ 1.9 µg/mL)
- MIC (Nakaseomyces glabratus): > 125 µM
- MIC (Candida albicans [10]): 31.2 µM (≈ 7.6 µg/mL)

SMILES: O=C1OC(O)C(/C=C/c2ccccc2)=C1F (stereo not drawn)
- pIC50 (Phospholipase A2): 5.52

SMILES: Cc1cc(O)c2c(c1)C(c1c(O)cccc1O)OC2=O (stereo not drawn)
- MIC (Globisporangium ultimum [11]): 40 µg/mL (≈ 147 µM)

SMILES: CC(C)O[C@@H]1OC(=O)[C@@H]2[C@H]1[C@@H]1C=C[C@H]2C1
- LD50 (Diaphania hyalinata): 44.51 µM/g

SMILES: COC(=O)C1=C(C)OC(C)(C)C1=O
- activity at 20 min, 30 µM (CYP3A4): 57.1%

SMILES: CC1(C)OC(c2ccc(S(C)(=O)=O)cc2)=C(c2cccc(F)c2)C1=O
- inhibition in vivo at 3 mg/kg (Rattus norvegicus [12]): 47%
- ED50 (Rattus norvegicus [13]): 0.008 mg/kg/day
- inhibition in vivo at 3 mg/kg (Rattus norvegicus [14]): 36%
- pIC50 [15]: 8.08
- UI [16]: 1.5

SMILES: O=C1OC(c2cccc(O)c2O)C(c2ccccc2)=C1O (stereo not drawn)
- pIC50 (Liver): 3.89
- pIC50 [17]: 3.73
- pIC50 [18]: 4.99

SMILES: O=C1OC(c2ccccc2)=C/C1=C/c1ccc([N+](=O)[O-])cc1
- growth inhibition (GI) (Candida albicans [19]): 66%
